Laboratory results from paper PMC7517944, “Design and Synthesis of Novel Nordihydroguaiaretic Acid (NDGA) Analogues as Potential FGFR1 Kinase Inhibitors With Anti-Gastric Activity and Chemosensitizing Effect” (Frontiers in Pharmacology, 2020).

Target: T1, FGFR1 kinase (Homo sapiens, UniProt P11362)
Experiment: cell-free Caliper mobility shift kinase assay, […] inhibition at […]; also lowers p-FGFR1 in cells
Format: biochemical

T1 sequence (P11362 22-822): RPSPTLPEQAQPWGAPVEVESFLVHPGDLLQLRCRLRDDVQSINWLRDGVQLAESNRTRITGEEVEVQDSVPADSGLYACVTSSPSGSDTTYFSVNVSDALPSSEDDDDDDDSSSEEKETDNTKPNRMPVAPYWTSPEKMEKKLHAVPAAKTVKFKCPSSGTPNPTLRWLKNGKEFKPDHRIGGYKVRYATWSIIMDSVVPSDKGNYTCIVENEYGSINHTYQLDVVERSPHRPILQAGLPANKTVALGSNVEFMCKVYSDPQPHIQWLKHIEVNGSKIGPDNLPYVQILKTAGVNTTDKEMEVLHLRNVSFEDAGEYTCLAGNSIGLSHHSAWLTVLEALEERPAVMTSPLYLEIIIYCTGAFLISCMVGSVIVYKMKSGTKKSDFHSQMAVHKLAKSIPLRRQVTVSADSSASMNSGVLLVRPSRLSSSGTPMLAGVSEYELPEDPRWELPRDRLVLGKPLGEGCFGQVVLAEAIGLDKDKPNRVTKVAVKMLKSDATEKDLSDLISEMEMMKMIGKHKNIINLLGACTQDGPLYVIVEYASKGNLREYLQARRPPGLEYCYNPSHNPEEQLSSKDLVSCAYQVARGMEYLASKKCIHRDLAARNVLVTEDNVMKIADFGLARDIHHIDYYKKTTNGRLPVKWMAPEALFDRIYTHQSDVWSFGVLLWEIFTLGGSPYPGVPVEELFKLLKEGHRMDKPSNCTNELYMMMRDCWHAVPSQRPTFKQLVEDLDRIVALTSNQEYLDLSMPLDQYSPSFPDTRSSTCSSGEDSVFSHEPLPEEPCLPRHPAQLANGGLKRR

| SMILES | inhibition at 20 µM |
| --- | --- |
| COc1cccc(/C=C2\COC/C(=C\c3ccc(O)c(O)c3)C2=O)c1OC [Y14, (3E,5E)-3-(3,4-dihydroxybenzylidene)-5-(2,3-dimethoxybenzylidene)dihydro-2H-pyran-4(3H)-one] | 92% |

Target: T1, FGFR1 kinase
Experiment: cell-free Caliper mobility shift kinase assay, inhibition at […]
Format: biochemical

| SMILES | inhibition at 20 µM |
| --- | --- |
| O=C1/C(=C/c2ccc(O)c(O)c2)COC/C1=C\c1ccc(O)c(O)c1 [Af23] | 92.8% |
| COc1cc(/C=C2\COC/C(=C\c3ccc(O)c(O)c3)C2=O)ccc1O [Y2, (3E,5E)-3-(3,4-dihydroxybenzylidene)-5-(4-hydroxy-3-methoxybenzylidene)dihydro-2H-pyran-4(3H)-one] | 55.7% |
| O=C1/C(=C/c2ccc(O)cc2)COC/C1=C\c1ccc(O)c(O)c1 [Y5, (3E,5E)-3-(3,4-dihydroxybenzylidene)-5-(4-hydroxybenzylidene)dihydro-2H-pyran-4(3H)-one] | 78.5% |
| O=C1/C(=C/c2cccc(O)c2)COC/C1=C\c1ccc(O)c(O)c1 [Y7, (3E,5E)-3-(3,4-dihydroxybenzylidene)-5-(3-hydroxybenzylidene)dihydro-2H-pyran-4(3H)-one] | 73.7% |
| COc1ccc(/C=C2\COC/C(=C\c3ccc(O)c(O)c3)C2=O)cc1O [Y9, (3E,5E)-3-(3,4-dihydroxybenzylidene)-5-(3-hydroxy-4-methoxybenzylidene)dihydro-2H-pyran-4(3H)-one] | 53.5% |
| COc1ccccc1/C=C1\COC/C(=C\c2ccc(O)c(O)c2)C1=O [Y11, (3E,5E)-3-(3,4-dihydroxybenzylidene)-5-(2-methoxybenzylidene)dihydro-2H-pyran-4(3H)-one] | 54.2% |
| O=C1/C(=C/c2ccc(N3CCOCC3)cc2)COC/C1=C\c1ccc(O)c(O)c1 [Y13, (3E,5E)-3-(3,4-dihydroxybenzylidene)-5-(4-morpholinobenzylidene)dihydro-2H-pyran-4(3H)-one] | 71.4% |
| COc1ccc(OC)c(/C=C2\COC/C(=C\c3ccc(O)c(O)c3)C2=O)c1 [Y15, (3E,5E)-3-(3,4-dihydroxybenzylidene)-5-(2,5-dimethoxybenzylidene)dihydro-2H-pyran-4(3H)-one] | 67.6% |
